Marks after values point to notes of the source that are not given here.
Columns and labels:
Sprague-Dawley rats = experiment: Effect on Food Intake after Food Deprivation in Rats; format: in vivo, rat; settings: 30 mg/kg p.o., rats fasted 18 h, N=6/group
Method: In rats, food deprivation or restriction is a standard method for inducing increased food intake. In other words, depriving the rats of food and then subsequently presenting them with food results, predictably in over-eating (also referred to as rebound hyperphagia). To study the effect of compounds of formula (I) on feeding behavior, rats were treated after food deprivation.
Adult, male Sprague-Dawley rats were single-housed on a 12 h light/dark cycle and received food and water ad libitum, except where otherwise indicated. Rats were allowed to acclimate to the housing room for at least 1 week prior to testing. One day prior to treatment, each rat was transferred to a new cage that was free of bedding and contained a wire grid floor, and all food was removed. Rats were fasted for 18 h before treatment. Rats were divided into two groups (N=6/group) and received either a compound of formula (I) at 30 mg/kg, p.o. or vehicle. At dosing, all rats received a pre-measured amount of standard rodent chow. After 30 min, the food was re-weighed to determine the amount consumed.

rats, strain CD(SD)IGS = experiment: 5-Day Repeat Dose with Weight Monitoring in Rats; format: in vivo, rat; settings: for Mean body weight Change: Day −1 to Day 4
Method: Male and Female rats, strain CD(SD)IGS (Charles River Laboratories International, Inc., MA) of 8 weeks of age were individually housed and maintained on a 12-hr light/dark cycle. Rats were fed ad libitum with a standard diet (Rodent Diet 5001, PMI Nutrition International, Indiana). […] Rats were weighed predose and on days 1 and 4. Clinical observations were recorded prior to dosing, at 2 hours post-dose each day. Rats were fasted overnight on Day 4 and blood was collected on Day 5 from the retro-orbital sinus following anesthesia with a 70/30% carbon dioxide/oxygen mixture. Blood was collected into tubes containing tripotassium EDTA for hematology panel and no additive for serum chemistry determinations. Rats were euthanized by CO2 inhalation and thoracic and abdominal cavities were examined and weights of liver determined.

beagle dogs = experiment: 5-Day Repeat Dose with Weight Monitoring in Dogs; format: in vivo, dog; parameters: key to Clinical Observations: Stained urogenital area (no. of dogs) / Body Temperature Change / Body Weight Change: —: No noteworthy findings; settings: for Body Weight Change: 5 days, Day-1 to Day 5; for Body Temperature Change: 4 hours postdose on Day 0
Method: Male and female beagle dogs, 15 months of age, were individually housed and maintained on a 12-hourlight/dark cycle. Dogs were given 300 g/day of Advanced Protocol™ Non-Certified High Density Canine Diet 5L18 (pMfID Nutrition International). Food was provided 0.5 to 2 hours post-dose, except on days of toxicokinetic blood sampling when food was provided after the 4 hour time point. Canned food was supplemented beginning on day 3. A compound of formula (I) was administered orally via gavage using a stomach tube once daily (initiating on Day 0) to male and female dogs (1 each per dose) for 5 consecutive days at 0, 5, 15 and 45 mg/kg/day. Dogs were weighed on Day-1 and Day 5 prior to necropsy. Food consumption was determined 3 days predose and then daily. Body temperature was measured at 0 (predose), 4 and 24 hours on Days 0 and 4. Clinical observations were recorded predose and 2 hours postdose daily. Dogs were fasted overnight prior to blood collection. Blood was collected from all dogs predose on Day-8 and prior to dosing on Day 4 from the jugular vein. Blood was collected into tubes containing tripotassium EDTA for hematology and no additive for serum chemistry determinations. At necropsy, the thoracic and abdominal cavities were examined.

`O=C(c1ccc2c(ccn2-c2ccc(F)cc2)c1)N1CC(N2CCN(C(=O)c3nccs3)CC2)C1` [Cpd 1, 1-(4-Fluorophenyl)-5-({3-[4-(1,3-thiazol-2-ylcarbonyl)piperazin-1-yl]azetidin-1-yl}carbonyl)-1H-indole] was tested, and the “Food Intake (g of food over 30 min)” value (Sprague-Dawley rats) was 1.60 ± 1.02 g, the Mean body weight (rats, strain CD(SD)IGS; female rats, 15 mg/kg/day oral, Day 4) was 226.98 +/− 10.29 and the Mean body weight (rats, strain CD(SD)IGS; female rats, 15 mg/kg/day oral, Day −1 (predose)) was 203.86 +/− 6.13. The Mean body weight (rats, strain CD(SD)IGS; female rats, 50 mg/kg/day oral, Day −1 (predose)) was 199.16 +/− 5.66, the “Mean body weight Change” value (rats, strain CD(SD)IGS; female rats, 50 mg/kg/day oral) was 8.54 +/− 2.32 and the Mean body weight (rats, strain CD(SD)IGS; male rats, 15 mg/kg/day oral, Day 4) was 301.94 +/− 7.52. The Mean body weight (rats, strain CD(SD)IGS; male rats, 15 mg/kg/day oral, Day −1 (predose)) was 273.34 +/− 4.80, the “Mean body weight Change” value (rats, strain CD(SD)IGS; male rats, 15 mg/kg/day oral) was 28.60 +/− 2.90 and the Mean body weight (rats, strain CD(SD)IGS; male rats, 50 mg/kg/day oral, Day 4) was 278.78 +/− 6.95. For the same molecule, the Mean body weight (rats, strain CD(SD)IGS; male rats, 50 mg/kg/day oral, Day −1 (predose)) was 272.66 +/− 6.92, the “Mean body weight Change” value (rats, strain CD(SD)IGS; male rats, 50 mg/kg/day oral) was 6.10 +/− 3.56* and the “Clinical Observations: Emesis (no. of dogs)” value (beagle dogs; dog F:1, 5 mg/kg daily oral) was 1. The “Clinical Observations: Feces, absent (no. of dogs)” value (beagle dogs; dog F:1, 5 mg/kg daily oral) was 1, the “Clinical Observations: Feces, decrease (no. of dogs)” value (beagle dogs; dog F:1, 5 mg/kg daily oral) was 1 and the “Clinical Observations: Stained urogenital area (no. of dogs)” value (beagle dogs; dog F:1, 5 mg/kg daily oral) was “—”. For the same molecule, the “Food Consumption” value (beagle dogs; dog F:1, 5 mg/kg daily oral) was “↓”, the “Body Weight Change” value (beagle dogs; dog F:1, 5 mg/kg daily oral) was −0.90 and the “Body Temperature Change” value (beagle dogs; dog F:1, 5 mg/kg daily oral) was −3.2. For the same molecule, the “Clinical Observations: Emesis (no. of dogs)” value (beagle dogs; dog F:1, 15 mg/kg daily oral) was 1, the “Clinical Observations: Feces, absent (no. of dogs)” value (beagle dogs; dog F:1, 15 mg/kg daily oral) was 1 and the “Clinical Observations: Feces, decrease (no. of dogs)” value (beagle dogs; dog F:1, 15 mg/kg daily oral) was 1. For the same molecule, the “Clinical Observations: Stained urogenital area (no. of dogs)” value (beagle dogs; dog F:1, 15 mg/kg daily oral) was 1, the “Food Consumption” value (beagle dogs; dog F:1, 15 mg/kg daily oral) was “↓” and the “Body Weight Change” value (beagle dogs; dog F:1, 15 mg/kg daily oral) was “—”. For the same molecule, the “Body Temperature Change” value (beagle dogs; dog F:1, 15 mg/kg daily oral) was −1.6, the “Clinical Observations: Emesis (no. of dogs)” value (beagle dogs; dog F:1, 45 mg/kg daily oral) was 1 and the “Clinical Observations: Feces, absent (no. of dogs)” value (beagle dogs; dog F:1, 45 mg/kg daily oral) was 1. For the same molecule, the “Clinical Observations: Feces, decrease (no. of dogs)” value (beagle dogs; dog F:1, 45 mg/kg daily oral) was 1, the “Clinical Observations: Stained urogenital area (no. of dogs)” value (beagle dogs; dog F:1, 45 mg/kg daily oral) was 1 and the “Food Consumption” value (beagle dogs; dog F:1, 45 mg/kg daily oral) was “↓”. The “Body Weight Change” value (beagle dogs; dog F:1, 45 mg/kg daily oral) was −1.28, the “Body Temperature Change” value (beagle dogs; dog F:1, 45 mg/kg daily oral) was “—” and the “Clinical Observations: Emesis (no. of dogs)” value (beagle dogs; dog M:1, 5 mg/kg daily oral) was 1. The “Clinical Observations: Feces, absent (no. of dogs)” value (beagle dogs; dog M:1, 5 mg/kg daily oral) was 1, the “Clinical Observations: Feces, decrease (no. of dogs)” value (beagle dogs; dog M:1, 5 mg/kg daily oral) was 1 and the “Clinical Observations: Stained urogenital area (no. of dogs)” value (beagle dogs; dog M:1, 5 mg/kg daily oral) was “—”. For the same molecule, the “Food Consumption” value (beagle dogs; dog M:1, 5 mg/kg daily oral) was “↓”, the “Body Weight Change” value (beagle dogs; dog M:1, 5 mg/kg daily oral) was −1.10 and the “Body Temperature Change” value (beagle dogs; dog M:1, 5 mg/kg daily oral) was −3.4. For the same molecule, the “Clinical Observations: Emesis (no. of dogs)” value (beagle dogs; dog M:1, 15 mg/kg daily oral) was 1, the “Clinical Observations: Feces, absent (no. of dogs)” value (beagle dogs; dog M:1, 15 mg/kg daily oral) was 1 and the “Clinical Observations: Feces, decrease (no. of dogs)” value (beagle dogs; dog M:1, 15 mg/kg daily oral) was 1. The “Clinical Observations: Stained urogenital area (no. of dogs)” value (beagle dogs; dog M:1, 15 mg/kg daily oral) was 1, the “Food Consumption” value (beagle dogs; dog M:1, 15 mg/kg daily oral) was “↓” and the “Body Weight Change” value (beagle dogs; dog M:1, 15 mg/kg daily oral) was −0.74. The “Body Temperature Change” value (beagle dogs; dog M:1, 15 mg/kg daily oral) was “—”, the “Clinical Observations: Emesis (no. of dogs)” value (beagle dogs; dog M:1, 45 mg/kg daily oral) was 1 and the “Clinical Observations: Feces, absent (no. of dogs)” value (beagle dogs; dog M:1, 45 mg/kg daily oral) was 1. For the same molecule, the “Clinical Observations: Feces, decrease (no. of dogs)” value (beagle dogs; dog M:1, 45 mg/kg daily oral) was 1, the “Clinical Observations: Stained urogenital area (no. of dogs)” value (beagle dogs; dog M:1, 45 mg/kg daily oral) was 1 and the “Food Consumption” value (beagle dogs; dog M:1, 45 mg/kg daily oral) was “↓”. The “Body Weight Change” value (beagle dogs; dog M:1, 45 mg/kg daily oral) was −0.78 and the “Body Temperature Change” value (beagle dogs; dog M:1, 45 mg/kg daily oral) was −1.9.

Source: patent US8987247B2, “Monoacylglycerol lipase inhibitors for the treatment of metabolic diseases and related disorders” (Janssen Pharmaceutica NV, priority 2011, dated 2015)
